Test results reported in US20070258912A1, “Use of Fluorescent Whitening Agents as Antimicrobials” (priority 2004, published 2007).
Read-outs that look alike come from different tables or passages of the source.

Experiments:
Assay type in all cases: cell-based
Staphylococcus aureus = assay: MIC in the agar incorporation test
Protocol: (§1) Determination of Minimum Inhibitory Concentration (MIC Values) in the Agar Incorporation Test
(§2) 1% stock solutions of the substances are prepared in an appropriate solvent and diluted in serial dilutions 1:2 (to yield end concentrations in the agar of 500-1.9 ppm). 0.3 ml of each dilution step is mixed with 15 ml of nutrient medium while the latter is still liquid. After the nutrient medium has solidified, 10 μl of each test strain in 0.85% NaCl solution are spotted onto the agar medium.
(§3) The plates are incubated at 37° C. for 24 hours and then the highest dilution (lowest concentration) of the test substance at which growth is no longer observable is determined.
(§4) Test Organisms: Staphylococcus aureus ATCC 6583 Staphylococcus epidermidis ATCC 12228 Corynebacterium xerosis ATCC 373 Propionibacterium acnes ATCC Escherichia coli ATCC 10536 Salmonella choleraesuis ATCC Klebsiella pneumoniae ATCC *Candida albicans ATCC 10231
(§5) *Aspergillus niger ATCC 6275

Klebsiella pneumoniae = assay: MIC in the agar incorporation test; details: Mueller Hinton agar, 24 hours at 37° C.
Protocol: as §1, §2, §3, §4, §5

Salmonella choleraesuis = assay: MIC in the agar incorporation test; details: Salmonella enterica, Mueller Hinton agar, 24 hours at 37° C.
Protocol: as §1, §2, §3, §4, §5

Staphylococcus epidermis = assay: MIC in the agar incorporation test
Protocol: as §1, §2, §3, §4, §5

Corynebacterium xerosis = assay: MIC in the agar incorporation test
Protocol: as §1, §2, §3, §4, §5

Propionibacterium acnes = assay: MIC in the agar incorporation test; details: Cutibacterium acnes, read-out: MIC Propionibacterium acnes
Protocol: as §1, §2, §3, §4, §5

[1] = tested on: Corynebacterium minutissimum; assay: MIC in the agar incorporation test; details: read-out: MIC Corynebacterium minutissimum
Prevotella nigrescens = assay: MIC against oral microorganisms via broth dilution
Protocol: (§6) Determination of the Minimum Inhibition Concentration (MIC Value) Against Different Oral Microorganisms Via Broth Dilution
(§7) 1500 ppm stock solutions of the substances are prepared in ethanol and pipetted into the growth medium to yield concentrations between 0.94 and 15 ppm. Bacteria are taken from blood agar plates with cotton swabs and adjusted in the appropriate growth medium to yield an optical density corresponding to McFarland 0.5. This suspension is directly used in the case of F. nucleatum and P. nigrescens. For the other strains, the suspension is diluted 1:20. 0.1 ml of these bacterial suspensions are added to 2 ml of the substance solutions. After the incubation time, the tubes are assessed for growth (turbidity).
(§8) Test Organisms: *Actinobacillus actinomycetemcomitans ATCC 43718 *Stretococcus gordonii ATCC 10558 *Streptococcus mutans ATCC 33402 Actinomyces viscosus ATCC 43146 Fusobacterium nucleatum subsp. polymorphum ATCC 10953 Porphyromonas gingivalis ATCC 33277
(§9) Prevotella nigrescens ATCC 33563

Streptococcus gordonii = assay: MIC against oral microorganisms via broth dilution
Protocol: as §6, §7, §8, §9

[2] = tested on: Fusobacterium nucleatum subsp. polymorphum; assay: MIC against oral microorganisms via broth dilution
Protocol: as §6, §7, §8, §9

Actinomyces viscosus = assay: MIC against oral microorganisms via broth dilution
Protocol: as §6, §7, §8, §9

Porphyromnas gingivalis = assay: MIC against oral microorganisms via broth dilution; details: read-out: MIC Porphyromnas gingivalis
Protocol: as §6, §7, §8, §9

Streptococcus mutans = assay: MIC against oral microorganisms via broth dilution
Protocol: as §6, §7, §8, §9

Escherichia coli = assay: MIC in the agar incorporation test; details: ATCC10536, 24 h, read-out: MIC Escherichia coli
Protocol: as §1, §2, §3, §4, §5

[3] = agar incorporation, Mueller Hinton agar, 24 hours at 37° C.
[4] = ATCC6583, 24 h, read-out: MIC Staphylococcus aureus
[5] = ATCC12228, 24 h, read-out: MIC Staphylococcus epidermis
[6] = ATCC373, 24 h, read-out: MIC Corynebacterium xerosis
[7] = ATCC33563, read-out: MIC Prevotella nigrescens
[8] = ATCC10558, 24 h, read-out: MIC Streptococcus gordonii
[9] = ATCC43146, read-out: MIC Actinomyces viscosus
[10] = ATCC33402, 24 h, read-out: MIC Streptococcus mutans

Structure (SMILES)	MIC (Staphylococcus aureus; [4])	MIC (Staphylococcus epidermis; [5])	MIC (Corynebacterium xerosis; [6])	MIC (Propionibacterium acnes; 24 h)	MIC ([1]; 24 h)	MIC (Prevotella nigrescens; [7])	MIC (Streptococcus gordonii; [8])	MIC (Actinomyces viscosus; [9])	MIC (Porphyromnas gingivalis)	MIC (Streptococcus mutans; [10])	also measured
COc1cccc(/C=C/c2ccc(/C=C/c3cccc(OC)c3OCCCN(C)C)cc2)c1OCCCN(C)C [formula 27]	–	–	–	–	–	–	–	–	–	–	MIC (Staphylococcus aureus; ATCC6583, agar incorporation, Mueller Hinton agar, 24 hours at 37° C., ATCC 6583, read-out: MIC Staphylococcus aureus): 12.5 µg/mL; MIC (Klebsiella pneumoniae): 25 µg/mL; MIC (Salmonella choleraesuis): 200 µg/mL; MIC (Staphylococcus epidermis; ATCC12228, agar incorporation, Mueller Hinton agar, 24 hours at 37° C., ATCC 12228, read-out: MIC Staphylococcus epidermis): 12.5 µg/mL; MIC (Corynebacterium xerosis; ATCC373, agar incorporation, Mueller Hinton agar, 24 hours at 37° C., ATCC 373, read-out: MIC Corynebacterium xerosis): 3.1 µg/mL; MIC (Propionibacterium acnes; [3]): 6.3 µg/mL; MIC [1, 3]: 3.1 µg/mL; MIC (Prevotella nigrescens; ATCC33563, broth dilution 0.94-15 ppm, Columbia bouillon, 7-10 days at 37° C. anaerobically, ATCC 33563, read-out: MIC Prevotella nigrescens): 3.8 µg/mL; MIC (Streptococcus gordonii; ATCC10558, broth dilution 0.94-15 ppm, 24 h aerobically with 10% CO2, ATCC 10558, read-out: MIC Streptococcus gordonii): 15 µg/mL; MIC ([2]; ATCC10953, broth dilution 0.94-15 ppm, 7-10 days at 37° C. anaerobically, ATCC 10953, read-out: MIC Fusobacterium nucleatum subsp. polymorphum): 7.5 µg/mL; MIC (Actinomyces viscosus; ATCC43146, broth dilution 0.94-15 ppm, 7-10 days at 37° C. anaerobically, ATCC 43146, read-out: MIC Actinomyces viscosus): 7.5 µg/mL; MIC (Porphyromnas gingivalis; broth dilution 0.94-15 ppm, Columbia bouillon, 7-10 days at 37° C. anaerobically, ATCC 33277): 7.5 µg/mL; MIC (Streptococcus mutans; ATCC33402, broth dilution 0.94-15 ppm, 24 h aerobically with 10% CO2, ATCC 33402, read-out: MIC Streptococcus mutans): 15 µg/mL
COc1cccc(/C=C/c2ccc(-c3ccc(/C=C/c4cccc(OC)c4OCCCN(C)C)cc3)cc2)c1OCCCN(C)C [formula 31]	62.5 µg/mL	125 µg/mL	125 µg/mL	7.8 µg/mL	15.6 µg/mL	3.75 µg/mL	11.2 µg/mL	3.8 µg/mL	1.9 µg/mL	7.5 µg/mL	MIC ([2]; ATCC10953, read-out: MIC Fusobacterium nucleatum subsp. polymorphum): 15 µg/mL
C[n+]1ccccc1COc1ccccc1/C=C/c1ccc(-c2ccc(/C=C/c3ccccc3OCc3cccc[n+]3C)cc2)cc1 [formula 32]	–	50 µg/mL	100 µg/mL	100 µg/mL	200 µg/mL	–	–	–	–	–	–
C[n+]1ccc(Oc2ccccc2/C=C/c2ccc(-c3ccc(/C=C/c4ccccc4Oc4cc[n+](C)cc4)cc3)cc2)cc1 [formula 34]	3.1 µg/mL	3.1 µg/mL	3.1 µg/mL	1.6 µg/mL	3.1 µg/mL	3.8 µg/mL	15 µg/mL	1.9 µg/mL	7.5 µg/mL	1.9 µg/mL	MIC (Escherichia coli): 50 µg/mL
